The values below come from patent publication US20260347843A1, “NERVOUS SYSTEM DELIVERY ENHANCER” (priority 2022, published 2026).

Data set [1] in a line: Evaluation of motor function in an open-field test. The format is in vivo, mouse. Particulars: coadministered with Mapt-targeting ASO (50 μg); 1 hour after intraventricular administration. On the procedure: (§1) On the ASO described in Table 2, the preparation of the nucleic acid, an in vivo experiment, and the evaluation of the target gene suppression effect were performed by the same methods as in Example 1. In this Example, however, the dose of the nucleic acid agent per mouse was 9.4 nmol (50 μg).
(§2) By the below-described methods, evaluation of central nervous system toxicity and evaluation of motor function were performed on mice after intraventricular administration.
To evaluate the motor function, an open-field test was performed at each point of time after the intraventricular administration. Specifically, a mouse was placed in the center of a cage (50 cm in width×50 cm in […]×40 cm in height), and the track of the mouse was recorded for 5 minutes. On the basis of the data recorded, the total maximum moving speed (m/s) and the moving time(s) were measured using the video tracking software (ANY-maze).

Data set [2] can be described thus: Evaluation of central nervous system toxicity (acute tolerability score). Particulars: intraventricular. The format is in vivo, mouse. On the procedure: as §1, §2
In the evaluation of central nervous system toxicity, the behavior was evaluated, using the scoring system shown in FIG. 6, at 30 minutes, 1 hour, and 2 hours after the intraventricular administration. According to the scoring system shown in FIG. 6, the behaviors classified into five categories were evaluated (Categories 1 to 5 in FIG. 6). Each category comprises two behavior evaluation items. Each behavior evaluation item is rated in five stages from 0 to 4 points (Scores 0 to 4 in FIG. 6). A normal behavior is given 0 point, and higher toxicity is given a higher score. In each category, the higher score in the two behavior evaluation items is adopted as the score for the category. The total value of the scores for the five categories is defined as an acute tolerability score (0 to 20 points).

Another data set concerns Mapt mRNA. The data set is described as follows: Mapt mRNA expression level in the hippocampus after intraventricular administration (target gene suppression effect). Conditions: 7 days. The class given is in vivo, mouse. Here is the method: Seven-week-old female ICR mice anesthetized with 2.5 to 4% isoflurane were fixed to a brain stereotaxic apparatus. Then, skin between the ears was cut open 2 to 3 cm anteroposteriorly, and perforated 1 mm leftward and 0.2 mm posteriorly from the bregma using a 1 mm diameter drill. A Hamilton syringe was filled with the nucleic acid agent. Through the perforated site, a needle was inserted approximately 3 mm deep. The ASO at a dose of 0.95 nmol (5 μg) per mouse was administered into the left lateral ventricle (n=4 to 7/group). The group to which ASO and TGN-073 were coadministered (hereinafter, the group is referred to as the “ASO/TGN-073 coadministration group”) means that ASO mixed with TGN-073 was administered. […]
Next, quantitative RT-PCR was performed with TaqMan (Roche Applied Science). Primers used in quantitative RT-PCR were products designed and manufactured by Thermo Fisher Scientific Inc. (formerly known as Life Technologies Corp.) on the basis of the various numbers of genes. […] The ratio of the expression amount of Malat1 RNA to the expression amount of Actb mRNA (internal standard gene) was calculated, and a value standardized with respect to the value of the PBS-treated group was determined as a relative Malat1 RNA level. […]

The nature of data set [3]: ASO concentration in mouse nervous tissue after intraventricular administration (quantitative RT-PCR relative to U6 snRNA). The format is in vivo. Here is the method: Seven-week-old female ICR mice anesthetized with 2.5 to 4% isoflurane were fixed to a brain stereotaxic apparatus. Then, skin between the ears was cut open 2 to 3 cm anteroposteriorly, and perforated 1 mm leftward and 0.2 mm posteriorly from the bregma using a 1 mm diameter drill. A Hamilton syringe was filled with the nucleic acid agent. Through the perforated site, a needle was inserted approximately 3 mm deep. The ASO at a dose of 0.95 nmol (5 μg) per mouse was administered into the left lateral ventricle (n=4 to 7/group). The group to which ASO and TGN-073 were coadministered (hereinafter, the group is referred to as the “ASO/TGN-073 coadministration group”) means that ASO mixed with TGN-073 was administered. The group to which only ASO was administered (hereinafter, the group is referred to as the “ASO single administration group”) means that only ASO was administered without being mixed with TGN-073. The dose of TGN-073 in the ASO/TGN-073 coadministration group was 0.25 mg per mouse. After the intraventricular administration, the skin was sutured with a nylon thread. In addition, mice to which only TGN-073 was administered (hereinafter, the mice are referred to as the “TGN-073 administration group”) and mice to which only PBS was administered (hereinafter, the mice are referred to as the “PBS administration group”) were produced as controls.
A left hippocampus was extirpated from each of the mice at 3 hours or 7 days after the intraventricular administration. Using an IsogenI kit (GeneDesign Inc.), RNA was extracted from the left hippocampus extirpated. A cDNA was synthesized using Transcriptor Universal cDNA Master, DNase (Roche Diagnostics) in accordance with the protocol.
The intracerebral ASO concentration (the amount of the nucleic acid delivered to the brain) was measured by extracting RNA from the left hippocampus extirpated in the same manner as described above, and performing quantitative RT-PCR using a primer pair for amplifying ASO and TaqMan Small RNA Assay (Roche Applied Science). The intracerebral ASO concentration was obtained by calculating the ASO content relative to U6 snRNA (an internal standard gene). […]

Data set [4] has as its system GFP expression in the central nervous system. The data set is described as follows: GFP expression from AAV9 vector in hippocampus-level coronal images after intraventricular administration. The class given is in vivo. Conditions: coadministered with AAV9-CMV-hrGFP, TGN-073 250 μg/mouse, 3 weeks. On the procedure:
In this Example, a GFP expression AAV9 (AAV9-CMV-hrGFP) as an adeno-associated viral (AAV) vector, alone or in combination with TGN-073 (250 μg/mouse), was administered at a dose of 26× 109 vg/mouse to the left lateral ventricle of a 7-week-old ICR mouse (female). Hereinafter, the mice to which only the AAV vector was intraventricularly administered are referred to as the “AAV single administration group”, and the mice to which the AAV vector and TGN-073 were intraventricularly administered together are referred to as the “AAV/TGN-073 coadministration group”. At 3 weeks after the intraventricular administration, the mouse was subjected to perfusion fixation using 4% paraformaldehyde. The mouse was subjected to cryoprotective treatment using a solution of 10% to 30% sucrose dissolved in PBS, and then, a cut-piece having a thickness of 40 μm was produced using a microtome. Using a fluorescence microscope (VHS-7000, Keyence Corporation), the GFP fluorescence (hippocampus-level coronal image) was captured.

Consider `O=S(=O)(Nc1ncccc1OCc1ccccc1)c1ccccc1` [TGN-073, N-(3-benzyloxypyridin-2-yl)-benzene-sulfonamide], for which the “Maximum moving speed in open-field test vs ASO single administration” value in data set [1] is on record as “substantially the same maximum moving speed”. The “Moving time in open-field test vs ASO single administration” value in data set [1] was “the same moving time”. Also, in data set [2] (TGN-073 single administration, 30 minutes, 1 hour, and 2 hours), the “Central nervous system toxicity” value was “no toxicity”. The compound also yielded an Acute tolerability score in data set [2] (TGN-073 single administration, 30 minutes, 1 hour, and 2 hours, scale 0 to 20 points) of 0. In addition, the “Acute tolerability score vs ASO single administration” value in data set [2] (coadministered with Mapt-targeting ASO (50 μg), 30 minutes, 1 hour, 2 hours) is “substantially the same acute tolerability score as the ASO single administration group”. For the same compound, in data set [2] (coadministered with Mapt-targeting ASO), the “Augmentation of neurotoxicity by TGN-073 coadministration” value is “no recognizable augmentation of neurotoxicity at all”. The “Target gene (Mapt) suppression effect in the hippocampus vs ASO single administration” value is “marked enhancement” in the data set with Mapt mRNA (Example 7, coadministered with Mapt-targeting ASO of Table 6 (9.4 nmol, 50 μg), TGN-073-mes 0.125 mg/mouse per method) and “marked augmentation” in the data set on Mapt mRNA (coadministered with Mapt-targeting ASO of Table 2 (9.4 nmol, 50 μg)). Also, the “ASO concentration in the central nervous system (hippocampus) vs ASO single administration” value in data set [3] (Example 7, coadministered with Mapt-targeting ASO of Table 6 (9.4 nmol, 50 μg), TGN-073-mes 0.125 mg/mouse per method, 7 days) is on record as “marked enhancement”. The “ASO concentration in the central nervous system (hippocampus) vs nucleic acid agent alone” value in data set [3] (coadministered with ASO (single-stranded, 0.95 nmol), 7 days) was “dramatic increase”; in data set [3] (coadministered with Chol-HDO (0.95 nmol), 7 days), “dramatic increase”; in data set [3] (coadministered with HDO (0.95 nmol), 7 days), “dramatic increase”. For the same compound, the “ASO concentration in the hippocampus (amount of nucleic acid delivered to the brain) vs ASO single administration” value in data set [3] (coadministered with Malat1-targeting ASO (0.95 nmol, 5 μg), TGN-073 0.25 mg per mouse, 3 hours or 7 days) is reported as “dramatic increase”. Also, the “ASO concentration in the lumbar cord portion vs ASO single administration” value in data set [3] (coadministered with Malat1-targeting ASO (1.7 nmol, 12.5 μg), 7 days) is recorded as “dramatic increase”. Moreover, the “GFP expression amount vs AAV single administration” value in data set [4] is recorded as “increase in the expression amount”. The “Range of GFP expression in the central nervous system vs AAV single administration” value in data set [4] was “significantly wide range”.
